Source: patent US11299506B2, “Acylnucleoside phosphonates, prodrugs thereof and use thereof as medicament” (UNIVERSITE DE MONTPELLIER, priority 2017, dated 2022)
Read-outs that look alike come from different tables or passages of the source.

Legend:
[1] = system: Plasmodium falciparum (strain 3D7); test: In vitro anti-Plasmodium falciparum activity (infected erythrocytes, radioactive precursor incorporation); type: cell-based
Description: After 48 h of incubation in the absence (control) or in the presence of the compound to be tested, the radioactive precursor is added, and the reaction is continued for another 18 h, then stopped by freezing at −80° C. The macromolecules, including the radiolabeled nucleic acids, are collected on a filter. The incorporated radioactivity is measured with the scintillation counter after addition of scintillation cocktail. The radioactive background noise is measured based on a suspension of healthy erythrocytes (same conditions as for parasite-containing suspensions). The viability of the parasites is expressed as a (nonspecific derived) percentage of the control. […] The IC50 values thus determined are the result of at least two experiments carried out independently in duplicate. Batches A and B correspond to two different syntheses according to the same procedure and carried out in their totality by two different operators, at a six month interval.

[2] = system: K562 cells; test: Toxicity with respect to K562 cells ([3H]-thymidine incorporation); type: cell-based, human; conditions: 3H-thymidine detection; Batch B; 24 h incubation; read-out: Activity against the K562 cells, 3H-Thymidine, Batch B IC50
Description: Suspensions of human cells (8000 cells per well) are cultured in complete RPMI medium (RPMI 1640 medium, L-glutamine, penicillin/streptomycin and 10% fetal calf serum) (200 μL) either in the absence of the compound to be tested (controls), or in contact with variable concentrations of said compound.
After 24 h of incubation (or approximately one cell cycle), 0.7 μCi of [^3H]-thymidine (radiolabeled precursor of the synthesis of the nucleic acids) diluted in 30 μL of complete RPMI medium are added to each well. After 6 h of additional incubation, the thymidine incorporation reaction is stopped by freezing at −80° C. As for the determination of the in vitro anti-malarial activity, the macromolecules, including the radiolabeled nucleic acids, are collected on a filter. The incorporated radioactivity is measured with the scintillation counter after addition of scintillation cocktail.
The radioactive background noise is measured based on complete RPMI medium. The viability of the cells is expressed as a (nonspecific derived) percentage of the control. The measurements are analyzed using Excel and Prism software, and the IC50 (concentration capable of in vitro inhibition of 50% of the growth of the cells) is determined graphically.
The IC50 values thus determined are the result of at least two experiments performed independently in duplicate.

[3] = system: Babesia divergens; test: In vitro anti-Babesia divergens activity (infected erythrocytes, [3H]-hypoxanthine incorporation); type: cell-based; conditions: 16 h contact, read-out: Activity against Babesia divergens IC50
Description: After 16 h of incubation in the absence (control) or in the presence of the compound, the radioactive precursor is added and the reaction is continued for another 8 h and then stopped by freezing at −80° C. As for the determination of the in vitro anti-parasitic activity, the macromolecules, including the radiolabeled nucleic acids, are collected on a filter. The incorporated radioactivity is measured with the scintillation counter after addition of scintillation cocktail. The radioactive background noise is measured based on a suspension of healthy erythrocytes (same conditions as for the parasite-containing suspensions). The viability of the parasites is expressed as a (nonspecific derived) percentage of the control. […] The IC50 values thus determined are the result of at least two experiments performed independently in duplicate.

[4] = system: Toxoplasma gondii; test: In vitro anti-toxoplasmosis activity by plaque assay on HFF fibroblast monolayer; type: cell-based; conditions: 7 days, average of 2 values
Description: This test is based on the capability of Toxoplasma gondii in its intracellular form (tachyzoite) to bring about the lysis of its host cell (here a monolayer of fibroblasts) and to then infect the neighboring cells so that over time (days) a macroscopically visible hole in the monolayer of cells becomes apparent and its area can be measured. In the 24-well culturing plates, approximately 80 parasites are added to a monolayer of fibroblasts (HFF cells) for 7 days in the presence or absence of drug. The cells are then fixed with 4% paraformaldehyde, and then stained with Giemsa. The cells are visualized under the microscope, and the size of the lysis plaques is measured using the software Zen® (Zeiss). The cells are maintained in culture in complete medium (DMEM+5% fetal calf serum+glutamine+penicillin/streptomycin). The ability of the drug to inhibit the growth of Toxoplasma gondii is proportional to the decrease in the size of the lysis plaque.
The results obtained are collected in Table 4 (average of 2 values) below and in FIG. 1.

[5] = read-out: Activity against P. falciparum (3D7), detection 3H-Hypoxanthine, Batch B IC50
[6] = Plasmodium falciparum, 3D7, Erythrocyte, 3H-ethanolamine detection, Batch A, 48 h contact, read-out: Activity against P. falciparum (3D7), detection 3H-Ethanolamine, Batch A IC50
[7] = Plasmodium falciparum, 3D7, Erythrocyte, 3H-hypoxanthine detection, Batch A, 48 h contact, read-out: Activity against P. falciparum (3D7), detection 3H-Hypoxanthine, Batch A IC50
[8] = read-out: Activity against P. falciparum (3D7), detection 3H-Ethanolamine, Batch A IC50
[9] = read-out: Activity against P. falciparum (3D7), detection 3H-Hypoxanthine, Batch A IC50

| IC50 [1, 7] | IC50 ([3]; Babesia divergens, Erythrocyte) | Compound | IC50 [1, 8] | IC50 [1, 9] | also measured |
| --- | --- | --- | --- | --- | --- |
| – | – | CCN(CC)CCCC(C)Nc1ccnc2cc(Cl)ccc12 (stereo not shown) [Chloroquine, reference compound] | – | – | IC50 ([1]; Plasmodium falciparum, 3D7, Erythrocyte, read-out: Activity against P. falciparum (3D7), detection 3H-Ethanolamine, Batch A IC50): 0.014 µM; IC50 ([1]; Plasmodium falciparum, 3D7, Erythrocyte, read-out: Activity against P. falciparum (3D7), detection 3H-Hypoxanthine, Batch A IC50): 0.0145 µM |
| – | – | COc1nc(N)nc2c1ncn2C[C@@H](O)CCP(=O)(OCCSC(=O)c1ccccc1)OCCSC(=O)c1ccccc1 [Compound 4, 6-O-methyl-9-[(2S)-2-hydroxy-4-bis(S-benzoyl-2-thioethyl)phosphonobutyl]-2-amino Purine] | – | – | IC50 [2]: 22 µM; IC50 [1, 5]: 57 µM |
| – | – | COc1nc(N)nc2c1ncn2C[C@H](O)CCP(=O)(OCCSC(=O)c1ccccc1)OCCSC(=O)c1ccccc1 [Compound 6, 6-O-methyl-9-[(2R)-2-hydroxy-4-bis(S-benzoyl-2-thioethyl)phosphonobutyl]-2-aminopurine] | – | – | IC50 [2]: 20 µM; IC50 [1, 5]: 62 µM |
| > 1000 µM | – | Nc1ncnc2c1ncn2C[C@@H](O)CP(=O)(O)O [Compound 10, N-9-[(2R)-2-hydroxy-3-phosphonopropyl] adenine] | – | – | IC50 [1, 6]: > 1000 µM |
| ≥ 1000 µM | – | Nc1nc2c(ncn2C[C@@H](O)CP(=O)(O)O)c(=O)[nH]1 [Compound 11, N-9-[(2R)-2-hydroxy-3-phosphonopropyl]guanine] | – | – | IC50 [1, 6]: > 1000 µM |
| 62 µM | > 100 µM | Nc1ncc2ncn(CC[C@@H](O)CP(=O)(O)O)c2n1 [Compound 16] | – | – | – |
| > 100 µM | 470 µM | O=P(O)(O)C[C@H](O)CCn1cnc2cc(Cl)c(Cl)cc21 [Compound 18] | – | – | – |
| > 100 µM | > 100 µM | O=c1[nH]c(=O)c2ncn(CC[C@@H](O)CP(=O)(O)O)c2[nH]1 [Compound 19] | – | – | – |
| > 1000 µM | > 100 µM | O=c1[nH]cnc2c1ncn2CC[C@@H](O)CP(=O)(O)O [Compound 20] | – | – | – |
| > 1000 µM | > 100 µM | O=c1[nH]cnc2c1ncn2CC[C@H](O)CP(=O)(O)O [Compound 21] | – | – | – |
| 910 µM | > 1000 µM | O=c1[nH]c(=O)c2ncn(CC[C@H](O)CP(=O)(O)O)c2[nH]1 [Compound 22] | – | – | – |
| – | 0.183 µM | N=C(N)c1ccc(OCCCCCOc2ccc(C(=N)N)cc2)cc1 [Pentamidine, reference compound] | – | – | – |
| – | – | N-9-[(2R)-2-hydroxy-3-phosphonobutyl]guanine [Compound 5] | 0.043 µM | 0.058 µM | IC50 [3]: 0.48 µM; IC50 [2]: 10000 µM; Inhibition of the growth of T. gondii ([4]; Conc = 5 μM): 42 % of the controls; Inhibition of the growth of T. gondii ([4]; Conc = 50 μM): 100 % of the controls; IC50 [1, 5]: 0.0775 µM |
| – | – | N-9-[(2R)-2-hydroxy-3-phosphonopropyl]2,6-diamino purine [Compound 13] | 740 µM | 510 µM | – |
| – | – | N-9-[(2S)-2-hydroxy-3-phosphono propyl]guanine [Compound 3] | 6 µM | 3.3 µM | IC50 [3]: 3.6 µM; IC50 [2]: > 5000 µM; Inhibition of the growth of T. gondii ([4]; Conc = 5 μM): 0 % of the controls; Inhibition of the growth of T. gondii ([4]; Conc = 50 μM): 18 % of the controls; IC50 [1, 5]: 7.05 µM |
| – | – | N-9-[(2S)-2-hydroxy-3-phosphono propyl]guanine [Compound 12] | – | – | IC50 [3]: > 1000 µM |
| – | – | N-9-[(2S)-2-hydroxy-3-phosphonopropyl]2,6-diamino purine [Compound 14] | 650 µM | 595 µM | – |
| – | – | N-9-[(2S)-2-hydroxy-3-phosphonopropyl] adenine [Compound 9] | > 1000 µM | > 1000 µM | – |
| – | – | N-9[(2R)-2-hydroxy-4-phosphonobutyl]adenine [Compound 2] | > 1000 µM | > 1000 µM | – |
